From paper PMC11330772, “Unveiling the kinetic versatility of aryl-alcohol oxidases with different electron acceptors” (Frontiers in Bioengineering and Biotechnology, 2024)
pKd: −log10 of the molar value. Like-named read-outs stand apart in the source and are kept apart here.

What was measured:
PeAAO [1] = target: T1, PeAAO (Pleurotus eryngii, UniProt O94219); experiment: Isothermal titration calorimetry with BQ; assay type: binding
Description: (§1) The interaction parameters of the enzymes with BQ were determined using an Auto-ITC200 high-sensitivity microcalorimeter (MicroCal, Malvern-Panalytical) thermostatted at 25 °C. Enzyme solutions (∼6 μM for BaAAO and 15 μM for PeAAO) were titrated with BQ (∼50 µM for BaAAO and ∼100 μM for PeAAO) in 50 mM Tris/HCl, pH 7.0. Up to 19 injections of 2 µL were programmed with enough time spacing for the signal to recover the baseline. The association constant (K a), the enthalpy change (ΔH) and the apparent stoichiometry (n) were estimated through non-linear regression of the experimental data using a model for one binding site implemented in Origin (Origin 7.0, OriginLab). The dissociation constant (K d), the Gibbs energy change (ΔG), and the entropy change (–TΔS) were obtained from basic thermodynamic relationships.

BaAAO [2] = target: T2, BaAAO (Bjerkandera adusta, UniProt A0ABF7PQ87); experiment: Isothermal titration calorimetry with BQ; assay type: binding
Description: as §1

PeAAO [3] = target: T1, PeAAO; experiment: Stopped-flow oxidative half-reaction (flavin reoxidation by O2 or BQ); conditions: for second phase of reoxidation (k ox B→C): two-step model
PeAAO [4] = target: T1, PeAAO; design: method as in Ferreira et al. (2023); conditions: alcohol substrate 4-methoxybenzyl alcohol, 50 mM phosphate, pH 6.0, 25 °C, ref Ferreira et al. (2023); cited from earlier work
PeAAO [5] = target: T1, PeAAO; experiment: Redox state of the enzyme during turnover (stopped-flow); assay type: biochemical; conditions: BQ as electron acceptor, regardless of the alcohol substrate, anaerobic, pH 6.0, 25 °C
Description: Experiments with O2 were performed with the alcohol under air-saturated conditions, while in the case of BQ, the alcohol was mixed with saturating concentration of BQ (300 µM) under anaerobic conditions. The spectral evolution of the enzymes during redox turnover was recorded between 350 and 700 nm.

BaAAO [6] = target: T2, BaAAO; design: method as in Ferreira et al. (2023); conditions: alcohol substrate 4-methoxybenzyl alcohol, 50 mM phosphate, pH 6.0, 25 °C, ref Ferreira et al. (2023); cited from earlier work
BaAAO [7] = target: T2, BaAAO; experiment: Redox state of the enzyme during turnover (stopped-flow); assay type: biochemical; conditions: BQ as electron acceptor, both alcohols, anaerobic, pH 6.0, 25 °C
PeAAO [8] = target: T1, PeAAO; experiment: Steady-state bi-substrate kinetics of alcohol oxidation; assay type: biochemical; conditions: alcohol substrate 3-Cl-4-methoxybenzyl alcohol, 50 mM phosphate, pH 6.0, 25 °C
Description: (§2) Bi-substrate kinetics were analyzed by concurrently varying the concentration of the aforementioned alcohols and electron acceptors. Oxygen assays were carried out in a screw-cap cuvette where the alcohol was equilibrated with the desired concentration of O2 by bubbling with the appropriate O2/N2 gas mixture (4%, 10%, 21%, 44%, and 100% O2) for 10 min. Alcohol oxidation was initiated by the addition of the enzyme and followed at 285 nm for 4-methoxybenzaldehyde production and 295 nm in the case of 3-Cl-4-methoxybenzaldehyde (Δε285 = 16,950 M^−1cm^−1 and Δε295 = 15,000 M^−1cm^−1, respectively) ([Ferreira et al., 2005]). […]. BQ solutions were prepared immediately prior to use and protected from the light to avoid photodegradation.
(§3) The initial rates for bi-substrate kinetics were fitted to Eq. 1 or Eq. 2, which describe sequential and ping-pong kinetic mechanisms, respectively. […]

BaAAO [9] = target: T2, BaAAO; experiment: as above; assay type: biochemical; conditions: BaAAO, alcohol substrate 3-Cl-4-methoxybenzyl alcohol; 50 mM phosphate, pH 6.0, 25 °C
Description: as §2, §3

T2 sequence (A0ABF7PQ87 entry or part of it): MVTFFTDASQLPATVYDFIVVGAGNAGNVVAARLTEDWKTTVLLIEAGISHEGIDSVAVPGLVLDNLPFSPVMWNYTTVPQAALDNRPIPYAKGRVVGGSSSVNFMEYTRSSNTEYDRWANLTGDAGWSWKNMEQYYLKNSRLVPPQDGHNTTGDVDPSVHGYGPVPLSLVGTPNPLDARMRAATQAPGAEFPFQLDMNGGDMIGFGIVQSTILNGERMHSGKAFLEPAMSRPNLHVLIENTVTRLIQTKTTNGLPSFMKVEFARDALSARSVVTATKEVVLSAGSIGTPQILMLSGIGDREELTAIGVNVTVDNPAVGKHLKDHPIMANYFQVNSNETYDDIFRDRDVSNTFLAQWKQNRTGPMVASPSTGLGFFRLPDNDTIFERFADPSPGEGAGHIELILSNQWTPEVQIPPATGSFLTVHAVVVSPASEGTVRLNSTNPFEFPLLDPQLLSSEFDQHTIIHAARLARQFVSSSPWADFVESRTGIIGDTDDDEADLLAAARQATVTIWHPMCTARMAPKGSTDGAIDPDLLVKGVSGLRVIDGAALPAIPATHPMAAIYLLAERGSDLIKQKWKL
T1 sequence (O94219 entry or part of it): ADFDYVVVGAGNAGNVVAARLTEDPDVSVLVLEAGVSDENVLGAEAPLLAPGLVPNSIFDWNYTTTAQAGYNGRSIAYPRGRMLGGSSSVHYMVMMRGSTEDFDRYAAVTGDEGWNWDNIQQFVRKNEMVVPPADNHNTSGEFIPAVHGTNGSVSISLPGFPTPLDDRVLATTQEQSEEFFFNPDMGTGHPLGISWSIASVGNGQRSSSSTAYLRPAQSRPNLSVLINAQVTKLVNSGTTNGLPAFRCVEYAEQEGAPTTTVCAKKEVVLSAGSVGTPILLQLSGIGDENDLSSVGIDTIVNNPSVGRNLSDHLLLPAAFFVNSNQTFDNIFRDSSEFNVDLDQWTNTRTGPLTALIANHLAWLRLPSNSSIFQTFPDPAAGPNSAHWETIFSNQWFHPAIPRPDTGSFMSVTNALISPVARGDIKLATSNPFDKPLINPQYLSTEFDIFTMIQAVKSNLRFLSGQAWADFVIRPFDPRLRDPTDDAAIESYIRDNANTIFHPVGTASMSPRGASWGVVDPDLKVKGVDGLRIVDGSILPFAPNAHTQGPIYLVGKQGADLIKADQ

## O=C1C=CC(=O)C=C1 [BQ, 1,4-benzoquinone]
PeAAO [1]
  pKd: 4.57
PeAAO [1]; PeAAO, ITC, 25 °C, 50 mM Tris/HCl, pH 7.0, error ±0.4
  ΔH: -25.1 kcal/mol
PeAAO [1]; PeAAO, ITC, 25 °C, 50 mM Tris/HCl, pH 7.0, from K d
  ΔG: -6.2 kcal/mol
PeAAO [1]; PeAAO, ITC, 25 °C, 50 mM Tris/HCl, pH 7.0, –TΔS = ΔG–ΔH
  –TΔS: 18.9 kcal/mol
BaAAO [2]
  pKd: 7.30
BaAAO [2]; BaAAO
  K d of alcohols higher than K d of BQ: ≤ 15,000 fold
BaAAO [2]; BaAAO, ITC, 25 °C, 50 mM Tris/HCl, pH 7.0, error ±0.4
  ΔH: -21.4 kcal/mol
BaAAO [2]; BaAAO, ITC, 25 °C, 50 mM Tris/HCl, pH 7.0, from K d
  ΔG: -9.9 kcal/mol
BaAAO [2]; BaAAO, ITC, 25 °C, 50 mM Tris/HCl, pH 7.0, –TΔS = ΔG–ΔH
  –TΔS: 11.5 kcal/mol
PeAAO [3]; PeAAO
  reverse rate constant (k rev), y-axis intercept of reoxidation: 55 s⁻¹
PeAAO [3]; PeAAO reoxidized with 50 µM of BQ
  second phase of reoxidation (k ox B→C): 5 to 10 s⁻¹
PeAAO [3]; PeAAO reoxidized with 100 µM of BQ
  second phase of reoxidation (k ox B→C): 15 to 20 s⁻¹
PeAAO [3]; PeAAO, 50 µM of BQ
  first phase share of the total amplitude of reoxidation: more than 50%
PeAAO [3]; PeAAO, 100 µM of BQ
  first phase share of the total amplitude of reoxidation: > 85%
PeAAO [4]
  k cat/K m(acceptor): 1,025 ± 154 s^−1mM^−1
PeAAO [5]
  enzyme in the oxidized state during turnover: 85%–92%
BaAAO [6]
  k cat/K m(acceptor): 450000 ± 70000 M⁻¹ s⁻¹
BaAAO [7]
  enzyme in the oxidized state during turnover: ~90%
PeAAO [8]
  k cat/K m(acceptor): 722000 ± 64000 M⁻¹ s⁻¹
BaAAO [9]
  k cat/K m(acceptor): 353000 ± 65000 M⁻¹ s⁻¹
